Data set [1] in a line: Acute toxicity, LD50 of each drug in male mice (DBA). The data set is classed as in vivo. Particulars: mouse, in vivo. The source says:
(§1) In this invention, 10-monohalo-fusaric acid can be prepared by dissolving dehydrofusaric acid in water or other suitable organic solvent, if necessary, together with a suitable reagent for generating hydrogen halide. Hydrogen halide is then introduced or generated to effect the addition reaction. […] The halo-fusaric halide can be prepared by reacting halogenating agent such as thionylchloride, hydrochloride with halo-fusaric acid in a solvent. The solvent can be inert solvent or halogenating agent such as thionyl chloride. The ahlo-fusaric acid amides of the invention can be prepared from the halo-fusaric halide in a solvent by introducing ammonia gas or adding methylamine, dimethylamine, ethylamine, diethylamine, etc.. The halogenating agents used for preparing halo-fusaric halide can be thionylchloride, hydrochloride, phosphorus pentachloride and phosphorus oxychloride. The thionylchloride can be used without a solvent, however, it is usual to carry out the halogenation of halo-fusaric acid in a solvent such as chloroform, benzene, etc.. The halo-fusaric halide reacts with ammonia or a lower alkylamine in a solvent such as chloroform, benzene, etc.. The ahlo-fusaric acid amide can be prepared from halo-fusaric acid ester by reacting it with an alkylamine. The halo-fusaric acid ester can be prepared by reacting halo-fusaric acid with an alcohol in the presence of […]. The details of the preparation of the halo-fusaric acid can be understood from the description of the examples. The halo-fusaric acid amides of the invention are characterized by a significant anti-hypertensive effects and low toxicity. The followings are test results of anti-hypertensive effects and toxicities of the typical halo-fusaric acid amides of the invention. The anti-hypertensive effects of dibromo, monobromo, dichloro and monochloro fusaric acid amide, monomethylamide, dimethylamide were compared with those of dibromofusaric acid and fusaric acid. Blood pressure of spontaneously hypertensive rats (SHR) derived from the colony of SHR produced by selective inbreeding of a strain of Wistar rats (Okamoto and Aoki, Jap. Circul. J. 27:282-293, 1963) was measured indirectly in unanaesthesized rats plethysmographically (Williams et al, J. Clin. Invest. 18:373-376, 1939). Thirty percent depression of systolic blood pressure was defined to be significant and effective change. […] LD50 of each drug was obtained using male mice (DBA).

Data set [2] relates to spontaneously hypertensive rats (SHR). Nature of the data set: Antihypertensive action in spontaneously hypertensive rats, systolic blood pressure measured plethysmographically. The class given is in vivo, Wistar-derived). Particulars: for ED50: Rattus norvegicus.
Excerpt: as §1

A further data set concerns male mice (DBA). Description: Acute toxicity, LD50 of each drug in male mice (DBA). Particulars: male mice (DBA), summary statement. The data set is classed as in vivo.
Excerpt: as §1

A short description of another data set: Solubility. The conditions noted are these: qualitative. The data set is classed as physicochemical.
For a further data set, the system named is dopamine-β-hydroxylase. Particulars: prior art statement; cited from earlier work.
For data set [3] the following is noted: prior art statement; cited from earlier work.
Setting [4] is: ip, intraperitoneal, male mice (DBA), read-out: LD50 (mg/kg) Intraperitaneally.
Where [5] appears, read: oral, male mice (DBA), read-out: LD50 (mg/kg) Orally.
The mark [6] stands for this setting: ip, antihypertensive action, intraperitoneal, SHR, 30% depression of systolic blood pressure defined as effective, read-out: ED50 (mg/kg) Intraperitoneally.
Where [7] appears, read: antihypertensive action, oral, SHR, 30% depression of systolic blood pressure defined as effective, read-out: ED50 (mg/kg) Orally.
The mark [8] stands for this setting: ip, read-out: ED50 (mg/kg) Intraperitoneally.
The mark [9] stands for this setting: po, read-out: ED50 (mg/kg) Orally.

Like-named read-outs stand apart in the source and are kept apart here.

Results on eight compounds are retold here after US3935221A, “Substituted fusaric acid derivatives” (Banyu Pharmaceutical Co., Ltd., priority 1971, dated 1976).

Regarding `CC(Br)CCc1ccc(C(N)=O)nc1` (stereo not shown) [Compound 2, 5-(3-Bromobutyl)picolinamide], the LD50 in data set [1] (setting [4]) is 633 mg/kg; in data set [1] (setting [5]) it was 1050 mg/kg. Further, the ED50 in data set [2] (setting [6]) is 2 mg/kg; in data set [2] (setting [7]), 4 mg/kg.
On to `NC(=O)c1ccc(CCC(Br)CBr)cn1` (stereo not shown) [Compound 1, 5-(3,4-Dibromobutyl)picolinamide], for which the LD50 in data set [1] (setting [4]) was 1170 mg/kg; in data set [1] (setting [5]), 1860 mg/kg. Moreover, the “toxicity (in words)” value with male mice (DBA) is reported as “the least toxic”. For the same compound, the ED50 in data set [2] (setting [8]) was 1 mg/kg; in data set [2] (setting [9]), 1.6 mg/kg. Further, the “anti-hypertensive effects (in words)” value in data set [2] (SHR, summary statement) was “the most effective drug for hypertension”. Besides, the “Solubility: insoluble” value in the data set “Solubility” is “Insoluble in water, ether”. Moreover, the “Solubility: soluble” value in “Solubility” was “Soluble in alcohol, acetone, benzene, chloroform”.
On to `CN(C)C(=O)c1ccc(CCC(Br)CBr)cn1` (stereo not shown) [Compound 3, N.N-Dimethyl-5-(3,4-dibromobutyl)picolinamide], for which the LD50 in data set [1] (ip) came to 304 mg/kg; in data set [1] (po), 500 mg/kg. In addition, the ED50 in data set [2] (setting [6]) worked out at 3 mg/kg; in data set [2] (setting [7]), 4 mg/kg.
`O=C(O)c1ccc(CCC(Br)CBr)cn1` (stereo not shown) [Compound 6, 5-(3,4-dibromobutyl)picolinic acid, reference compound]: the LD50 was 132 mg/kg in data set [1] (setting [4]) and 180 mg/kg in data set [1] (setting [5]). Moreover, the ED50 came out at 3.2 mg/kg in data set [2] (setting [6]) and 4 mg/kg in data set [2] (setting [7]). Also, the “Solubility: insoluble” value in “Solubility” was “insoluble in cold water and petroleum ether”. In the data set “Solubility”, the “Solubility: soluble” value was “soluble in alcohol, chloroform, benzene, ethylacetate, and hot water”.
For `CN(C)C(=O)c1ccc(CCC(Cl)CCl)cn1` (stereo not shown) [Compound 5, N.N-Dimethyl-5-(3,4-dichlorobutyl)picolinamide], the LD50 in data set [1] (ip) stood at 188 mg/kg; in data set [1] (po) it was 300 mg/kg. Moreover, the ED50 in data set [2] (setting [6]) came to 5 mg/kg; in data set [2] (setting [7]), 1.6 mg/kg.
With `CCCCc1ccc(C(=O)O)nc1` [Compound 7, Fusaric acid], the LD50 in data set [1] (setting [4]) came to 110 mg/kg; in data set [1] (setting [5]), 130 mg/kg. The ED50 in data set [2] (setting [8]) came out at 3.5 mg/kg; in data set [2] (setting [9]) it was 4 mg/kg. In the data set with dopamine-β-hydroxylase, the “inhibition of the production of dopamine-β-hydroxylase” value is reported as “inhibit the production of dopamine-β-hydroxylase”. In data set [3], the toxicity entry is “quite high in toxicity”.
Regarding `NC(=O)c1ccc(CCC(Cl)CCl)cn1` (stereo not shown) [Compound 4, 5-(3,4-Dichlorobutyl)picolinamide], the LD50 in data set [1] (setting [4]) amounted to 374 mg/kg; in data set [1] (setting [5]), 620 mg/kg. Also, the ED50 in data set [2] (setting [6]) was 2 mg/kg; in data set [2] (setting [7]), 4 mg/kg. Further, in the data set “Solubility”, the “Solubility: insoluble” value is “Insoluble in water, ether”. Also, in the data set “Solubility”, the “Solubility: soluble” value was “Soluble in methanol, acetone, benzene, chloroform”.
In the case of `CC(Br)CCc1ccc(C(=O)O)nc1` (stereo not shown) [10-bromo-fusaric acid, 5-(3-bromobutyl)picolinic acid], in the data set “Solubility”, the “Solubility: insoluble” value is “insoluble in n-hexane, petroleum ether”; the “Solubility: soluble” value was “soluble in alcohol, chloroform, acetone, benzene, ethylacetate, and is soluble in hot water but difficulty soluble in cold water”.
